Measurements from PubChem BioAssay (NCI).
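1) Cells in 96-well plates. 2) Compound, 48 h, 5 concentrations. 3) Linear interpolation between surrounding doses. 4) Unreached endpoint = highest concentration. TGI marks complete inhibition of growth.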

Legend:
Assay in all cases: DTP human tumour cell line panel, 48 h
U251 CNS = tested on: U251 CNS
ACHN renal = tested on: ACHN renal
HL-60(TB) leukemia = tested on: HL-60(TB) leukemia
K-562 leukemia = tested on: K-562 leukemia
NCI-H23 lung = tested on: NCI-H23 lung
OVCAR-5 ovarian = tested on: OVCAR-5 ovarian
UACC-62 melanoma = tested on: UACC-62 melanoma
M14 melanoma = tested on: M14 melanoma
COLO 205 colon = tested on: COLO 205 colon
NCI/ADR-RES ovarian = tested on: NCI/ADR-RES ovarian
MALME-3M melanoma = tested on: MALME-3M melanoma
UO-31 renal = tested on: UO-31 renal
SK-MEL-28 melanoma = tested on: SK-MEL-28 melanoma
A549 NSCLC = tested on: A549 NSCLC
SK-MEL-5 melanoma = tested on: SK-MEL-5 melanoma
HCC-2998 colon = tested on: HCC-2998 colon
MOLT-4 leukemia = tested on: MOLT-4 leukemia
A498 renal = tested on: A498 renal
RPMI-8226 leukemia = tested on: RPMI-8226 leukemia
MDA-MB-435 = tested on: MDA-MB-435

SMILES | TGI (U251 CNS) [µM] | TGI (ACHN renal) [µM] | TGI (HL-60(TB) leukemia) [µM] | TGI (K-562 leukemia) [µM] | TGI (NCI-H23 lung) [µM] | TGI (OVCAR-5 ovarian) [µM] | TGI (UACC-62 melanoma) [µM] | TGI (M14 melanoma) [µM] | TGI (COLO 205 colon) [µM] | TGI (NCI/ADR-RES ovarian) [µM] | TGI (MALME-3M melanoma) [µM] | TGI (UO-31 renal) [µM] | TGI (SK-MEL-28 melanoma) [µM] | TGI (A549 NSCLC) [µM] | TGI (SK-MEL-5 melanoma) [µM] | TGI (HCC-2998 colon) [µM] | TGI (MOLT-4 leukemia) [µM] | TGI (A498 renal) [µM] | TGI (RPMI-8226 leukemia) [µM] | TGI (MDA-MB-435) [µM]
O=C(O)C1(C(=O)O)CC1(C(=O)O)C(=O)O | > 100 | > 100 | > 100 | > 100 | > 100 | > 100 | > 100 | > 100 | > 100 | > 100 | > 100 | > 100 | > 100 | > 100 | > 100 | > 100 | > 100 | – | – | –
O=C(O)C(Cc1c[nH]c2ccccc12)N=Cc1nc(-c2ccccc2)oc1O (stereo not given) | > 100 | > 100 | > 100 | > 100 | > 100 | > 100 | > 100 | > 100 | > 100 | – | > 100 | > 100 | > 100 | > 100 | > 100 | > 100 | > 100 | > 100 | > 100 | –
O=C(Cn1cc(-c2ccccc2)nn1)NC1CCCC1 | > 100 | > 100 | > 100 | > 100 | > 100 | > 100 | – | > 100 | > 100 | > 100 | > 100 | – | > 100 | > 100 | > 100 | > 100 | > 100 | – | > 100 | > 100
CC1(C)C(O)C[C@]23CCC[C@](C)(C[C@@H](O)C12)C3 (stereo not given in full) | > 100 | > 100 | > 100 | > 100 | > 100 | > 100 | > 100 | > 100 | > 100 | > 100 | > 100 | > 100 | > 100 | > 100 | > 100 | – | > 100 | – | > 100 | > 100
CN(/N=C/c1cccs1)c1ccc(Cl)cc1[N+](=O)[O-] | 59.5 | > 100 | 54.1 | > 100 | > 100 | – | > 100 | > 100 | – | 66.7 | – | > 100 | > 100 | > 100 | > 100 | > 100 | > 100 | – | > 100 | > 100
Nc1ncnc2c1ncn2C1C=CC(CP(=O)(O)O)C1 (stereo not given) | > 100 | > 100 | – | – | > 100 | > 100 | > 100 | > 100 | > 100 | > 100 | > 100 | > 100 | > 100 | > 100 | > 100 | > 100 | > 100 | – | > 100 | > 100
CC(=O)Nc1ccc(C(=O)NN2C(=O)C(Cl)C2c2cc(Br)ccc2O)cc1 (stereo not given) | > 100 | > 100 | > 54.2 | > 100 | > 100 | > 100 | > 100 | 45.5 | > 100 | > 100 | > 100 | 32.3 | > 100 | > 100 | > 100 | > 100 | > 100 | – | > 100 | > 100
COC(=O)C(=O)c1c2ccccc2n2ccc3c4ccccc4[nH]c3c12 | > 10 | > 10 | > 10 | > 10 | > 10 | > 10 | > 10 | > 10 | > 10 | > 10 | > 10 | > 10 | – | > 10 | > 10 | > 10 | > 10 | – | > 10 | > 10
OCC1NCC(O)C(O)C1O (stereo not given) | > 100 | > 100 | > 100 | – | > 100 | > 100 | > 100 | > 100 | > 100 | – | 55.8 | > 100 | > 100 | > 100 | > 100 | > 100 | > 100 | > 100 | > 100 | > 100
Cc1ccc2c(=O)cc(-c3cccc4ccccc34)[nH]c2n1 | 1.64 | > 100 | 0.0318 | > 36.8 | > 100 | > 47.1 | > 100 | > 100 | 0.676 | > 100 | 0.0495 | > 55.4 | > 100 | > 48.1 | 0.0897 | 0.177 | > 100 | 0.0568 | – | –
CCOP(=O)(OCC)C1CC(O)CN1OC(=O)C(C)(C)C (stereo not given) | > 100 | > 100 | – | > 100 | > 100 | > 100 | > 100 | > 100 | > 100 | > 100 | > 100 | > 100 | > 100 | > 100 | > 100 | – | > 100 | > 100 | > 100 | > 100
CN(c1ccccc1)S(=O)(=O)c1ccccc1[N+](=O)[O-] | > 100 | > 100 | > 100 | > 100 | > 100 | > 100 | > 100 | > 100 | > 100 | > 100 | > 100 | > 100 | > 100 | > 100 | – | > 100 | > 100 | – | > 100 | > 100
C=C[C@]1(C)CCC2=C(CCC3C2(C)CCC[C@]3(C)CO)C1 (stereo not given in full) | 63.8 | > 100 | 52.2 | > 100 | > 100 | > 100 | > 100 | > 100 | > 100 | – | > 100 | > 100 | > 100 | > 100 | > 100 | > 100 | 84.9 | > 100 | > 100 | –
